Data published in patent publication US20090062355A1, “Pharmaceutical Product” (Takeda Pharmaceutical Company Limited, priority 2006, published 2009).

Legend:
[1] = tested on: mouse macrophage cell line RAW264.7 cells; test: Inhibitory action on intracellular signal transduction after LPS stimulation (Bioplex phosphorylated protein assay); assay type: cell-based; conditions: LPS 10 ng/mL; 1, 3, 10, 20, 30 min; FIG. 1
From the text: FIG. 1-1 is a graph showing the effect of test compound 1 on phosphorylated protein (ATF2) after LPS addition in mouse macrophage cells. An average of triplicate measurement values is shown, mean±standard error (Experimental Example 5, n=3).
FIG. 1-2 is a graph showing the effect of test compound 1 on phosphorylated protein (JNK) after LPS addition in mouse macrophage cells. An average of triplicate measurement values is shown, mean±standard error (Experimental Example 5, n=3).
FIG. 1-3 is a graph showing the effect of test compound 1 on phosphorylated protein (p38MAPK) after LPS addition in mouse macrophage cells. An average of triplicate measurement values is shown, mean±standard error (Experimental Example 5, n=3).
FIG. 1-4 is a graph showing the effect of test compound 1 on phosphorylated protein (IκBα) after LPS addition in mouse macrophage cells. An average of triplicate measurement values is shown, mean±standard error (Experimental Example 5, n=3). […]
A suppressive effect of test compound 1 (compound 72 of • Reference Example B66) on the production of various cytokines by lipopolysaccharide (LPS), which is a TLR4 agonist, using mouse macrophage cell line RAW264.7 cells was examined. […] The supernatant was recovered, and phosphorylated protein was quantified using Bioplex phosphorylated protein assay (Bio-Rad). […]

[2] = tested on: mouse macrophage cell line RAW264.7 cells; test: Suppressive action on expression caused by gene induction by LPS stimulation (DNA Chip); assay type: cell-based; conditions: 100 nM + LPS 10 ng/mL, 6 hr
Procedure: A suppressive effect of test compound 1 (compound 72 of • Reference Example B66) on the production of various mediators by lipopolysaccharide (LPS), which is a TLR4 agonist, in mouse macrophage cell line RAW264.7 cells was examined. The day before the experiment, the cells were suspended to 5×10^5 cells/mL in RPMI1640 medium supplemented with 10% inactivated fetal bovine serum, plated on a plate and incubated at 37° C., 5% CO2/95% air overnight. The medium was changed to RPMI1640 medium supplemented with 1% inactivated fetal bovine serum, and test compound 1 (final concentration 100 nM) and LPS (final concentration 10 ng/mL) were added. After culture for 6 hr, RNA was prepared by a conventional method and gene was analyzed using DNA Chip (Mu73A, Affimetrix) and Gene Spring ver. 4. The test substance was dissolved in N,N-dimethylformamide to 10 mM and diluted with a medium.

CCOC(=O)C1=CCCC[C@H]1S(=O)(=O)Nc1ccc(F)cc1Cl [test compound 1, ethyl (6R)-6-[(2-chloro-4-fluoroanilino)sulfonyl]-1-cyclohexene-1-carboxylate]
phosphorylated protein after LPS addition (ATF2, JNK, p38MAPK, IκBα, ERK1/2, p90RSK, STAT2, p70 S6 Kinase) [1]: suppressed phosphorylation of all examined proteins involved in LPS signal transduction
gene variation by LPS stimulation ([2]; all genes analyzed that showed variation by LPS): suppressed almost all the gene variation analyzed
expression of mRNA (fluorescence intensity): MMP-9 ([2]; control 0, LPS 3571.5): 352.6
expression of mRNA (fluorescence intensity): bcl-3 ([2]; control 0, LPS 7512.6): 158.7
expression of mRNA (fluorescence intensity): Guanylate binding protein-2 ([2]; control 0, LPS 8931.2): 19.4
expression of mRNA (fluorescence intensity): RANTES ([2]; control 0, LPS 12030.1): 34.8
expression of mRNA (fluorescence intensity): IL-1 beta ([2]; control 0, LPS 18712.2): 424.9
expression of mRNA (fluorescence intensity): Cytokine inducible SH2-containing protein ([2]; control 0, LPS 22669.3): 2092.5
expression of mRNA (fluorescence intensity): MCP-3 ([2]; control 2.4, LPS 3159.0): 46.5
expression of mRNA (fluorescence intensity): Adenosine A2b receptor ([2]; control 2.7, LPS 2092.2): 141.9
expression of mRNA (fluorescence intensity): inducible nitric oxide synthase ([2]; control 9.3, LPS 1251.6): 125.9
expression of mRNA (fluorescence intensity): COX-2 ([2]; control 24.4, LPS 13981.9): 71.9
expression of mRNA (fluorescence intensity): CCR1 ([2]; control 26.5, LPS 1877.4): 137.9
expression of mRNA (fluorescence intensity): IL-6 ([2]; control 26.7, LPS 5345.6): 0
expression of mRNA (fluorescence intensity): IP-10 ([2]; control 40.1, LPS 12954.7): 30.7
expression of mRNA (fluorescence intensity): Histidine decarboxylase ([2]; control 44.3, LPS 4472.2): 21.1
expression of mRNA (fluorescence intensity): IL-4 receptor ([2]; control 84.4, LPS 7015.8): 160.6
expression of mRNA (fluorescence intensity): MCP-1 ([2]; control 115.6, LPS 24184.7): 336.8
expression of mRNA (fluorescence intensity): Fas antigen ([2]; control 132.7, LPS 2507.5): 202.7
expression of mRNA (fluorescence intensity): A20 ([2]; control 143.9, LPS 1044.3): 204.0
expression of mRNA (fluorescence intensity): IL-1 receptor antagonist ([2]; control 156.9, LPS 21942.3): 538.2
expression of mRNA (fluorescence intensity): P2X4 ([2]; control 193.0, LPS 1239.3): 227.0
expression of mRNA (fluorescence intensity): plasminogen activator inhibitor ([2]; control 199.1, LPS 15207.5): 67.5
expression of mRNA (fluorescence intensity): TNF receptor associated factor ([2]; control 213.6, LPS 2457.3): 311.4
expression of mRNA (fluorescence intensity): IL-10 ([2]; control 221.8, LPS 6617.9): 128.1
expression of mRNA (fluorescence intensity): Janus kinase 2 ([2]; control 228.3, LPS 2175.1): 310.9
expression of mRNA (fluorescence intensity): argininosuccinate synthetase ([2]; control 376.7, LPS 8623.2): 478.9
expression of mRNA (fluorescence intensity): Major histocompatibility complex ([2]; control 378.5, LPS 3399.6): 353.0
expression of mRNA (fluorescence intensity): serum amyloid A ([2]; control 393.1, LPS 24253.2): 1041.0
expression of mRNA (fluorescence intensity): Caspase-11 ([2]; control 436.0, LPS 6975.7): 763.5
expression of mRNA (fluorescence intensity): Phosphatase PAC1 ([2]; control 653.7, LPS 12520.7): 765.9
expression of mRNA (fluorescence intensity): G-CSF ([2]; control 698.4, LPS 18440.5): 844.9
expression of mRNA (fluorescence intensity): IL-18 ([2]; control 708.7, LPS 4881.4): 429.4
expression of mRNA (fluorescence intensity): MIP-2 ([2]; control 819.2, LPS 12542.9): 3055.0
expression of mRNA (fluorescence intensity): TNF receptor ([2]; control 906.2, LPS 24864.6): 3467.0
expression of mRNA (fluorescence intensity): Fc receptor ([2]; control 1244.4, LPS 20683.4): 982.5
expression of mRNA (fluorescence intensity): Interferon regulatory factor ([2]; control 1491.7, LPS 7554.9): 1356.3
expression of mRNA (fluorescence intensity): Galectin-9 ([2]; control 1904.3, LPS 19639.3): 3639.2
